Experimental data published in PubChem BioAssay AID228 (DTP/NCI, 2004).
Values joined by “and” are separate entries in the source; they are usually repeats but may differ in a detail not shown here. Equal entries are not always repeated. Inconclusive results are not listed.

System: BDF1 mice, Friend leukemia sc, tumor weight T/C
Assay: NCI In Vivo Anticancer Drug Screen. Data for tumor model Friend Virus Leukemia (Solid) (subcutaneous) in B6D2F1 (BDF1) mice
Conditions: endpoint: mean tumor weight, higher = larger tumour
Procedure: The antitumor activity of compounds was measured in mice bearing transplantable tumors. Survival or tumor size were measured and the results are expressed as the measurement made in the treated group (T) divided by the measurement made in the vehicle treated control group (C). The tumor model used in this assay is Friend Virus Leukemia (Solid) (subcutaneous) in B6D2F1 (BDF1) mice

Question: With `O=C(Nc1ccc(C2=NCCN2)cc1)c1cccc(C(=O)Nc2ccc(C3=NCCN3)cc2)c1` as the molecule, how does the T/C (dose: 25.0 mg/kg/injection, schedule: Q01DX011 (ip), vehicle: water) read?
Answer: Its T/C is 72 % of control.

Question: For `CCNc1nncs1`, which T/C (dose: 8.62 mg/kg/injection, schedule: Q01DX011 (ip), vehicle: carboxymethylcellulose (CMC)) is on record?
Answer: The T/C was 122 % of control.

Question: What about the T/C (dose: 17.25 mg/kg/injection, schedule: Q01DX011 (ip), vehicle: carboxymethylcellulose (CMC)) of the same molecule?
Answer: The T/C was 107 % of control.

Question: What about the T/C (dose: 34.5 mg/kg/injection, schedule: Q01DX011 (ip), vehicle: carboxymethylcellulose (CMC)) of the same molecule?
Answer: Its T/C is 193 % of control.

Question: What about the T/C (dose: 69.0 mg/kg/injection, schedule: Q01DX011 (ip), vehicle: carboxymethylcellulose (CMC)) of the same molecule?
Answer: Its T/C is 112 % of control.

Question: Which results are given for `CC/C(=C(\CC)c1ccc(OC)cc1)c1ccc(O)cc1`?
Answer: T/C (dose: 3.0 mg/kg/injection, schedule: Q01DX011 (sc), vehicle: steriod suspending solution): 69 % of control; T/C (dose: 7.0 mg/kg/injection, schedule: Q01DX011 (sc), vehicle: steriod suspending solution): 101 % of control; T/C (dose: 15.0 mg/kg/injection, schedule: Q01DX011 (sc), vehicle: steriod suspending solution): 79 % of control; T/C (dose: 30.0 mg/kg/injection, schedule: Q01DX011 (sc), vehicle: steriod suspending solution): 55 % of control; T/C (dose: 240.0 mg/kg/injection, schedule: Q01DX011 (sc), vehicle: steriod suspending solution): 65 % of control; T/C (dose: 480.0 mg/kg/injection, schedule: Q01DX011 (sc), vehicle: steriod suspending solution): 63 % of control; T/C (dose: 960.0 mg/kg/injection, schedule: Q01DX011 (sc), vehicle: steriod suspending solution): 62 % of control; T/C (dose: 1920.0 mg/kg/injection, schedule: Q01DX011 (sc), vehicle: steriod suspending solution): 63 % of control

Question: What does the source list for `CCOc1ccc(Nc2ncnc3nc[nH]c23)cc1CN(CCCl)CCCl`?
Answer: T/C (dose: 1.0 mg/kg/injection, schedule: Q01DX011 (ip), vehicle: saline): 101 % of control; T/C (dose: 4.0 mg/kg/injection, schedule: Q01DX011 (ip), vehicle: saline): 70 % of control

Question: Which T/C (dose: 1.25 mg/kg/injection, schedule: Q01DX011 (ip), vehicle: carboxymethylcellulose (CMC)) does the source give for `O=C1C=Cc2ccc(O)cc2C1=O` here?
Answer: Its T/C is 108 % of control.

Question: What about the T/C (dose: 2.5 mg/kg/injection, schedule: Q01DX011 (ip), vehicle: carboxymethylcellulose (CMC)) of the same molecule?
Answer: Its T/C is 83 % of control.

Question: And the T/C (dose: 10.0 mg/kg/injection, schedule: Q01DX011 (ip), vehicle: carboxymethylcellulose (CMC))?
Answer: Its T/C is 102 % of control.

Question: Which results are given for `N=[N+]=CC(=O)OCC(N)C(=O)O` (stereo not given)?
Answer: T/C (dose: 0.38 mg/kg/injection, schedule: Q01DX011 (ip), vehicle: carboxymethylcellulose (CMC)): 49 % of control; T/C (dose: 0.75 mg/kg/injection, schedule: Q01DX011 (ip), vehicle: carboxymethylcellulose (CMC)): 37 % of control; T/C (dose: 1.5 mg/kg/injection, schedule: Q01DX011 (ip), vehicle: carboxymethylcellulose (CMC)): 39 % of control and 44 % of control; T/C (dose: 1.8 mg/kg/injection, schedule: Q01DX011 (ip), vehicle: carboxymethylcellulose (CMC)): 108 % of control; T/C (dose: 9.0 mg/kg/injection, schedule: Q01DX011 (ip), vehicle: carboxymethylcellulose (CMC)): 33 % of control; T/C (dose: 12.0 mg/kg/injection, schedule: Q01DX011 (ip), vehicle: carboxymethylcellulose (CMC)): 22 % of control and 44 % of control; T/C (dose: 15.0 mg/kg/injection, schedule: Q01DX011 (ip), vehicle: carboxymethylcellulose (CMC)): 29 % of control

Question: How did the T/C (dose: 3.75 mg/kg/injection, schedule: Q01DX011 (ip), vehicle: other) turn out when `CN(C)c1nc(N(C)C)nc(N(C)C)n1` was run?
Answer: The T/C was 104 % of control.

Question: And the T/C (dose: 7.5 mg/kg/injection, schedule: Q01DX011 (ip), vehicle: other)?
Answer: Its T/C is 83 % of control.

Question: What about the T/C (dose: 15.0 mg/kg/injection, schedule: Q01DX011 (ip), vehicle: other) of the same molecule?
Answer: The T/C was 112 % of control.

Question: What about the T/C (dose: 30.0 mg/kg/injection, schedule: Q01DX011 (ip), vehicle: other) of the same molecule?
Answer: Its T/C is 84 % of control.

Question: Which results are given for `NNc1ncnc2nc[nH]c12`?
Answer: T/C (dose: 25.0 mg/kg/injection, schedule: Q01DX011 (ip), vehicle: saline): 118 % of control; T/C (dose: 50.0 mg/kg/injection, schedule: Q01DX011 (ip), vehicle: saline): 61 % of control

Question: `O=C(O)c1cc(O)c(O)c(O)c1` was tested. Which T/C (dose: 50.0 mg/kg/injection, schedule: Q01DX011 (ip), vehicle: alkali diluted with saline) did it give?
Answer: The T/C was 85 % of control.

Question: What about the T/C (dose: 100.0 mg/kg/injection, schedule: Q01DX011 (ip), vehicle: alkali diluted with saline) of the same molecule?
Answer: The T/C was 79 % of control.

Question: What about the T/C (dose: 200.0 mg/kg/injection, schedule: Q01DX011 (ip), vehicle: alkali diluted with saline) of the same molecule?
Answer: The T/C was 84 % of control.

Question: And the T/C (dose: 400.0 mg/kg/injection, schedule: Q01DX011 (ip), vehicle: alkali diluted with saline)?
Answer: The T/C was 95 % of control.
